US20220175888A1, “CARBOXYLATED OSTEOCALCIN FOR TREATMENT OF AMYLOIDOSIS OR DISEASES ASSOCIATED WITH ABNORMAL PROTEIN FOLDING” (NATIONAL INSTITUTE OF IMMUNOLOGY, priority 2018, published 2022)
Positions of bridges follow the written chain, without caps; N, C: chain ends. Non-standard residues stand in square brackets, D forms with d. No end group written: not given here. Gla = N[C@@H](CC(C(=O)O)C(=O)O)C(=O)O

What was measured:
TFEB = TFEB localization, transcription, protein expression and phosphorylation in astrocytes; format: cell-based, mouse; conditions: qPCR
[1] = Gla-OC and Glu-OC in serum by ELISA; format: in vivo; conditions: 5×FAD Tg mice vs Tg controls, 300 ng per mouse per day
Excerpt: Two-month old 5×FAD Tg mice, both male as well as female were used for the study. For the purposes of this study wild type mice is referred to as Wt and 5×FAD mice is referred to as Tg. All experimental procedures in were approved by the Institutional Animal Ethics Committee. For experimentation, the mice were divided in below groups for treatment:
1. Wild type mice given vehicle (lx PBS or phosphate buffered saline; pH 7.4). 2. 5×FAD Transgenic mice given vehicle. 3. 5×FAD Transgenic mice given carboxylated osteocalcin (Gla-OC) subcutaneously at doses (300 ng-1000 ng per mouse of weight ranging from 25-28 g for 1 month). 4. Wild type mice given Gla-OC.
Foremost the status of osteocalcin in long bones and serum of amyloid overexpressing 5×FAD Tg mice was evaluated. Thereafter, the effect of osteocalcin administration against amyloidosis in brain was tested. 1. The status of osteocalcin expression in bone was determined by evaluating the mRNA level of Bglap2 gene (gene that encodes osteocalcin in mouse) using quantitative PCR or qPCR. Long bones of mice like femur and tibia were harvested from mice after sacrifice. […] Following amplification, fold changes in gene expression versus β-actin (reference) analysis was determined using the […] (Livak) method. […] Carboxylated (Gla-OC) and undercarboxylated (Glu-OC) forms of osteocalcin in serum of mice was analyzed by ELISA. […]

astrocytes = experiment: Lysotracker Red / HiLyte Abeta42 confocal microscopy in astrocytes; format: cell-based, mouse
Description: This was further confirmed by surface staining of LRP1 and confocal microscopy (FIG. 4Gc). […] We next assessed how Abeta42 degradation occurs in Gla-OC exposed astrocytes. This was assessed by first evaluating the protein expression of LC3II by immunoblot analysis. Under normal conditions excess cargo in cell is cast-off by a cell through a recycling pathway called ‘autophagy’. The first step in autophagy is autophagosome formation wherein LC3I a cytosolic microtubule associated protein light chain 3 gets lipidated to form LC3II and recruits to autophagosomal membranes to allow cells to be LC3II*, a bona fide marker of autophagy and the first step towards autophagic lysosomal degradation. Another requirement for autophagosomes to be functionally relevant is downstream fusion with lysosomes. Under normal conditions, autophagosomes fuse with endosomes to form a higher order organelle called […] ‘amphisomes’, which then matures to form ‘autolysosomes or terminal lysosomes’. The efficiency of autophagosome/lysosome fusion was evaluated using Lysotracker Red, a fluorescent dye that preferentially accumulates in vesicles with acidic pH. The cells were treated with Lysotracker Red for 20 min and fixed using ice-cold methanol. After confocal microscopy (Ziess) the images were analyzed using Image J (NIH). The co-occurrence of the two signals is shown as Mander's overlap co-efficient (MOC) in the range of values 0 to 1. […] This dye accumulates in acidic intracellular organelles and its fluorescence increases with acidic environments and decreases with that of alkaline. The status of lysosome biogenesis was assessed by immunoblot or immunocytochemistry. […] To evaluate lysosome biogenesis the status of LAMP2 (by immunoblot), cathepsins (by immunoblot and colorimetric activity based assay) and TFEB or transcription factor EB (by immunocytochemistry for cellular localization of transcription, by PCR for evaluating gene transcription, by immunoblot for protein expression and by co-immunoprecipitation and immunoblot to check phosphorylation of TFEB) were evaluated. […]

Question: With `Cn1cnc(N)c2ncnc1-2` [3-methyl adenine] as the compound, how does the “transcription of Tfeb gene in the presence of autophagy inhibitors” value (TFEB) read?
Answer: The value was “increased”.

Question: With “YLYQWLGAPVPYPDPL[Gla]PRR[Gla]VC[Gla]LNPDCDELADHIGFQEAYRRFYGPV (disulfide 23-29) [Gla-OC, carboxylated osteocalcin]” as the compound, how does the “level of Gla-OC in serum” value [1] read?
Answer: The value was “significantly increased (p<0.05)”.

Question: Which “transcription of Tfeb gene in the presence of autophagy inhibitors” value (TFEB) does the source give for `CCN(CC)CCCC(C)Nc1ccnc2cc(Cl)ccc12` (stereo not drawn) [chloroquine] here?
Answer: The value was “increased”.

Question: With “HiLyte Abeta42: fluorescent HiLyte labelled Abeta42 peptide added to astrocytes; challenge agent, Abeta42 alone comparator” as the compound, how does the “number of Lysotracker Red puncta, lower as compared to basal” value (astrocytes; HiLyte Abeta42 treated cells without Gla-OC) read?
Answer: Its value is 4 fold.

Question: What about the “size of Lysotracker Red puncta” value (astrocytes; astrocyte cultures) of the same compound?
Answer: Its value is less than 0.25 μm^2.

Question: What about the “degree of co-localization of HiLyte Abeta42 with Lysotracker Red (Mander's overlap co-efficient)” value (astrocytes; range of values 0 to 1, Image J analysis) of the same compound?
Answer: The value was 0.412.
